Assay results taken from patent US11767330B2, “Citrate salt, pharmaceutical compositions, and methods of making and using the same” (Foghorn Therapeutics Inc., priority 2021, dated 2023).
Entries after “also recorded” stand apart in the source; their conditions may differ.

Biological target: T1, BRD9 (Homo sapiens, UniProt Q9H8M2)
T1 sequence (Q9H8M2 1-597): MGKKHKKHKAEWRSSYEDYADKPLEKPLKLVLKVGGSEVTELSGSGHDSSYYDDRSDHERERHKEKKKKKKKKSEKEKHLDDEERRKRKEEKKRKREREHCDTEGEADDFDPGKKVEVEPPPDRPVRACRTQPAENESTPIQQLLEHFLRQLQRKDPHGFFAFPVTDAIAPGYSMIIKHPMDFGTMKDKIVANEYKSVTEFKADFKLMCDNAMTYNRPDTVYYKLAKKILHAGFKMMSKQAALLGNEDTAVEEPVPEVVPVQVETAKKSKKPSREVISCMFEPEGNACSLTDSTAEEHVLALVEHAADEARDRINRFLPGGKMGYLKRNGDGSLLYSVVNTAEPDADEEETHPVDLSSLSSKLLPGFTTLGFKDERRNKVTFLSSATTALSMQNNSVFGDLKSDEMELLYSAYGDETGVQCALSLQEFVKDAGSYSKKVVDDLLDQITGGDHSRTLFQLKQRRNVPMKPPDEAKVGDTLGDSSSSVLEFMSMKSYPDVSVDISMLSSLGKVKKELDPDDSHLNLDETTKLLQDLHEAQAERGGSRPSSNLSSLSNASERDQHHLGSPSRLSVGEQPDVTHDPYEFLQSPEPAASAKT
Experiment: BRD9 degradation in synovial sarcoma tumor in vivo, western blot (Example 12)
Parameters: Tumors were lysed with 1×RIPA lysis buffer; from tissue; host or cells: SYO-1 xenograft tumours in BALB/c Nude mice; species or system mice
Settings: 1 mg/kg, i.p., 4 weeks; tumors 8, 72, 168 hours post last dose
Method: Method: Mice were treated with D1, 1 mg/kg, i.p. for 4 weeks. Mice were then euthanized, and tumors were collected at 8 hours, 72 hours, and 168 hours post last dose. Tumors were lysed with 1×RIPA lysis buffer (Boston BioProducts, BP-115D) with protease and phosphatase protein inhibitor (Roche Applied Science #04906837001 & 05892791001). Equal amounts of lysate (30 μg) were loaded in 4-12% Bis-Tris Midi Protein Gels in 1×MOPS buffer; samples ran at 120 V for 120 minutes. Protein was transferred to membrane with TransBlot at 250 mA for 150 minutes, and then membranes were blocked with Odyssey blocking buffer for 1 hour at room temperature. Membranes were hybridized overnight in cold room with primary antibodies. Images acquired using Li—COR imaging system (Li—COR Biotechnology, Lincoln, Nebr.).

Which “BRD9 level in tumor (western blot)” value does the source give for `COc1cc(-c2cn(C)c(=O)c3cnc(N4CCC4)cc23)cc(OC)c1CN1CCC(CN2CCC3(CC2)CN(c2ccc4c(c2)C(=O)N(C2CCC(=O)NC2=O)C4)C3)CC1` (racemic) [Compound D1, 3-[6-(7-[[1-([4-[6-(azetidin-1-yl)-2-methyl-1-oxo-2,7-naphthyridin-4-yl]-2,6-dimethoxyphenyl]methyl)piperidin-4-yl]methyl]-2,7-diazaspiro[3.5]nonan-2-yl)-1-oxo-3H-isoindol-2-yl]piperidine-2,6-dione] here?
Its value is “BRD9 inhibition; also recorded: complete degradation of BRD9 target up to 168 hours after dose”.
